What all share (assay type): in vivo, Arabidopsis thaliana
In one series the test system is PHT1;4 expression. Description: Chemical genetics screen, GUS staining of pht1;4-1 reporter line. The source says: (§1) A “chemical genetics” approach has been carried out to isolate compounds that inhibit the phosphate (Pi) response in Arabidopsis thaliana. Compounds were screened for their ability to inhibit the expression of a phosphate starvation marker, namely the high affinity Pi transporter PHT1,4 gene. For the screening, the A. thaliana pht1;4-1 line (ecotype Wassilewskija) was chosen (Misson et al., 2004). It contains a T-DNA construct inserted into Pht1;4 gene creating a transcriptional fusion with a GUS reporter gene. For phenotypic analyses, A. thaliana Columbia and various lines derived from this ecotype were used. They are either transgenic lines expressing reporter gene as cycB1::GUS (Colón Carmona et al., 1999), MGD3::LUC, PHT1;4::LUC, At1g73010::LUC or various mutants affecting root response to low Pi such as: pdr2 (Ticconi et al., 2004), lpr1, lpr2 (Svistoonoff et al., 2007), lpi1, lpi2 and lpi3 (Sanchez-Calderon et al., 2006).
For the screening, the LATCA collection of 3600 biologically active compounds (Zhao et al., 2007) was used at a final concentration of 25 μM in 1% DMSO. Four to five Arabidopsis seeds of pht1;4-1 (Misson et al., 2004) reporter line were sown in 96-well plates containing 100 μL liquid MS/10 medium with 500 μM of Pi at pH 5.7. After 2 days at 4° C., plants were grown for five days in a culture chamber under a 16 h light/8 h dark regime (24/21° C., 150 μE m^−2s^−1). Medium was then replaced by MS/10 with only 5 μM Pi and the tested compounds were added to the 96-well plates. […] Five days later, plantlets were analysed by GUS staining to assay the activity of the reporter gene inserted in pht1;4 gene. […] Then, plates were analysed using a MZ16 stereomicroscope (Leica microsystems, Germany).
The GUS activity was detected as previously described by Jefferson et al. (1987), using a GUS staining solution containing 50 mM sodium phosphate buffer pH 7.0; 0.01% Triton X-100, 1 mM K3Fe(CN)6, 1 mM K4Fe(CN)6, 1 mg/ml 5-bromo-4-chloro-3-indolyl B-D-glucuronide (X-Gluc). […]

In a further series the test system is wild-type (WT) seedlings. Briefly: Primary root growth of wild-type seedlings. The settings on record: for activity of PTN1 analogues (inhibitor activity of PHT1;4 expression and effect on the growth): WT seedlings, FIG. 6; for concentration at which active on primary root growth: −Pi. The protocol:
(§2) In the Pi deficient medium, NaCl (0.5 mM) was used to replace the equivalent amount of sodium provided by NaH2PO4. For controls of the effects of the compounds, 1% of DMSO (Dimethyl sulfoxid, SIGMA, 472301), solvent for the tested compounds, was added. After 2 days at 4° C., the plates were placed in a vertical position and plants were grown in a culture chamber under a 16 h light/8 h dark regime (24/21° C., 150 μE m^−2s^−1). For 4 weeks culture, large plates (24×24 cm) were placed in a horizontal position. Root architecture and aerial part area were quantified using program ImageJ.

In series [1] the test system is lpr1, lpr2 and lpi mutants. Description: Primary root growth of mutants with reduced root sensitivity to Pi starvation. The settings on record: 7-days-old plants, PTN1 40 μM, FIG. 8.
From the text: as §1
In the Pi deficient medium, NaCl (0.5 mM) was used to replace the equivalent amount of sodium provided by NaH2PO4. For controls of the effects of the compounds, 1% of DMSO (Dimethyl sulfoxid, SIGMA, 472301), solvent for the tested compounds, was added. […] Root architecture and aerial part area were quantified using program ImageJ.

A further series concerns lpr1 mutant. Description: Shoot growth of lpr1 mutant. The note with it: −Pi, 28-days-old plants. The method, then:
as §2

The subject of the next series is PHT1 genes (PHT1;4). Briefly: qPCR of PHT1 transcript level on root mRNA. The note with it: qPCR on root mRNA, FIG. 2 (B). The method, then:
Plant RNA was extracted with the RNeasy kit (QIAGEN, France). For transcriptome data, RNA were analysed by the CATMA technology (Complete Arabidopsis Transcriptome Microarray). For qPCR, poly(dT) cDNA were prepared from 500 ng total RNA with Superscript III reverse transcriptase (Invitrogen, France) and analysed on a LightCycler 480 apparatus (Roche Diagnostics, France) with the SYBR Green I Master kit (Roche Diagnostics, France) according to the manufacturer's instructions. Targets were quantified with specific primer pairs designed with Primer3 website (http://frodo.wi.mit.edu/primer3/) (see Table II below). Biological triplicates were performed for all experiments. Expression levels were normalized using At2g16600, At3g04120, At1g35160 and At1g32050 genes.

Take `Sc1ccc(Cl)cc1` [PTN3, 4-chlorothiophenol]: the “PHT1;4 expression (analogue test)” value in the series on PHT1;4 expression (100 μM) was “repressed PHT1;4 expression”. Also, the “activity of PTN1 analogues (inhibitor activity of PHT1;4 expression and effect on the growth)” value with wild-type (WT) seedlings is given as “Active”. Besides, in the series on wild-type (WT) seedlings (WT, 7-day-old plantlets, FIG. 7 (A)), the “primary root growth on −Pi” value was “sustained also the primary root growth”. Besides, in the series with wild-type (WT) seedlings (FIG. 7 (A)), the “concentration at which active on primary root growth” value was 100 µM.
In the case of `Clc1ccc(SSc2ccc(Cl)cc2)cc1` [PTN4], the “primary root growth at various external Pi concentrations (15-250 uM)” value with wild-type (WT) seedlings (10 uM, 5 days on Pi rich medium then 24 hours on tested conditions, FIG. 7 (D)) is listed as “improved root growth until 50/75 μM of Pi”. For the same molecule, the “activity of PTN1 analogues (inhibitor activity of PHT1;4 expression and effect on the growth)” value in the series on wild-type (WT) seedlings is recorded as “Active”. Also, the “concentration at which active on primary root growth” value in the series with wild-type (WT) seedlings (FIG. 7 (A)) amounted to 10 µM. Moreover, in series [1], the “primary root growth of lpr1 or lpi mutants” value is “no additive effect”. Further, the “growth of the lpr1 rosette” value with lpr1 mutant is reported as “+25%”.
As to `CS(=O)(=O)C1=C2C=CCCC2=C(C(=O)Sc2ccc(Cl)cc2)C1` [PTN2], in the series with PHT1;4 expression (25 μM, 5 days on −Pi), the “toxicity as cause of reduced reporter gene expression” value is listed as “not explained by toxicity”. The “effect on PHT1;4 transcript level” value with PHT1 genes (PHT1;4) is recorded as “dose dependant manner”.

These data come from US9801373B2, “Compounds for alleviating phosphate starvation symptoms in plants” (Commissariat a l'Energie Atomique et aux Energies …, priority 2012, dated 2017).
